Reference: US11767303B2, “Compounds and methods for inhibiting viral replication and methods of treating and preventing flaviviral infections” (priority 2020, dated 2023)
Where two headings read alike, the source gives them in different places.

What was measured:
ZIKV = assay: Viral titer reduction assay, ZIKV in A549 cells; type: cell-based, Zika virus
Protocol: Viral Titer Reduction Assay. A viral titer reduction assay was used to determine the compounds' effect on DENV2 and ZIKV strains, as described previously. […] Human A549 lung carcinoma cells and human primary neural progenitor cells were used, as described previously. […] All experiments were performed in triplicates.

[1] = WST-8 cell proliferation cytotoxicity assay; type: cell-based, human; conditions: human
Protocol: (§1) Cytotoxicity Assay. […] All experiments were performed in triplicates.
(§2) To address this concern, next the compound cytotoxicity CC50 was measured using a WST-8 cell proliferation assay, as described previously.

DENV2 = assay: Viral titer (plaque) reduction assay, DENV2 in A549 cells; type: cell-based, Dengue virus serotype 2
Protocol: Viral Titer Reduction Assay. A viral titer reduction assay was used to determine the compounds' effect on DENV2 and ZIKV strains, as described previously. […] Human A549 lung carcinoma cells and human primary neural progenitor cells were used, as described previously. […] 13:e1006411 (2017), which are hereby incorporated by reference in their entirety. All experiments were performed in triplicates.
A viral plaque reduction assay was performed next to evaluate the antiviral efficacy of these derivatives. Human lung carcinoma A549 cells were infected with DENV2 in the presence of a concentration series of derivatives or a dimethyl sulfoxide (DMSO) control, and viral titers were measured at 48 hrs post-infection, as described previously.

[2] = biological target: T1, DENV2 NS2B-NS3 interaction (Dengue virus type 2, UniProt P29990); assay: Split luciferase complementation (SLC) NS2B-NS3 interaction assay; type: binding, Dengue virus serotype 2; conditions: concentration reducing 50% of SLC signal; read-out: IC50-SLC-(DN2)
T1 construct: GST (N); made in house

DENV2 NS2B-NS3 protease = biological target: T2, DENV2 NS2B-NS3 protease (Dengue virus type 2, UniProt P29990); assay: Protease inhibition assay (FRET peptide substrate); type: biochemical, Dengue virus serotype 2
T2 construct: made in house
Protocol: Protease Inhibition Assay. The protease inhibition assay was performed using the refolded DENV2 NS3 fusion protein (50 nM) and a fluorescence resonance energy transfer (FRET) peptide substrate (100 μM) (Abz-RRRRSAG-nTyr (NeoBiolab)), as described previously. […] 13:e1006411 (2017); and Lang et al., “Analysis of Protein-Protein Interactions by Split Luciferase Complementation Assay,” Curr. Protoc. Toxicol. 82:e (2019), all of which are hereby incorporated by reference in their entirety. Substrate cleavage was monitored at excitation/emission wavelengths of 360 nm/420 nm (Abz substrate) by a BioTek Flx800. The rate of increase in relative fluorescence unit (RFU) over time was calculated in the linear range and normalized as a percent of the DMSO control. The IC50/CC50/EC50 was determined by fitting the dose-responsive curve with a non-linear regression function using the GraphPad Prism 8 (San Diego, Calif.). All experiments were performed in triplicates.
Next, the inhibition efficacy of these positive derivatives were evaluated against the viral NS2B-NS3 protease function as previously described. […] Previously, two versions of the NS3 protease were generated, the NS3 protease domain refolded from inclusion bodies and a soluble version of the NS3 protease domain fused to maltose-binding protein (MBP). […]

Aqueous solubility = type: physicochemical
A549 cells = assay: WST-8 cell proliferation cytotoxicity assay; type: cell-based, human; conditions: Table 4, preliminary SAR, A549 cells; read-out: CC50
Protocol: as §1, §2

[3] = not told
in vitro = conditions: not told, Perme. (cell permeability)
[4] = Pharmacokinetics in B6 mice after oral gavage
From the text: Pharmacokinetics. […] Fan et al., “Contributions of Hepatic and Intestinal Metabolism to the Disposition of Niclosamide, a Repurposed Drug with Poor Bioavailability,” Drug Metab. Dispos. 47:756-763 (2019), which is hereby incorporated by reference in its entirety. […] Student's t-test was used. P values<0.05 were considered statistically significant.

DENV2 replicon = DENV2 replicon assay in BHK-21 cells (Renilla luciferase); type: cell-based, Dengue virus serotype 2; conditions: Dengue virus, BHK-21 replicon cells, 48 hours, read-out: EC50-DN2 (DENV2 replicon)
Protocol: DENV2 Replicon Assay. […] The cells were incubated at 37° C. in a humidified incubator with 5% CO2 for hrs in a 100 μl medium containing Minimal Essential Medium (MEM) supplemented with 10% fetal bovine serum (FBS), 100 I.U./ml penicillin, 100 g/ml streptomycin, and 300 μg/ml G418. Upon 24 hrs incubation, culture medium was discarded. Fresh culture medium of 100 μl with a concentration series of compounds or DMSO control was added to the cells in triplicates. The culture was further incubated for 48 hours. The cells were then washed twice with 100 μl phosphate-buffered saline (PBS), followed by addition of 25 μl of a lysis buffer containing 1×PBS and 1% Triton X-100. The mixture was incubated at room temperature with gentle shaking (50 rpm) for 30 minutes. Assay buffer (125 μl) containing 1×PBS, 0.05% (3-((3-cholamidopropyl) dimethylammonio)-1-propanesulfonate) (CHAPS), and 0.1% BSA was then added to each well. In the meantime, a fresh 4× working substrate coelenterazine was prepared by diluting 1 μl of stock coelenterazine (2.4 mM) dissolved in ethanol into 10 ml assay buffer (10,000-fold dilution). […] The luminescence was recorded immediately using the Veritas luminometer. The luminescence data was normalized to DMSO control. The EC50 was determined by nonlinear regression fitting of normalized experimental data in GraphPad Prism 8.0 (San Diego, Calif.). […]

[5] = Zika virus, A549, read-out: EC50-ZK (A549)
[6] = A549 cells, read-out: CC50 (A549)
[7] = Dengue virus, DENV2, A549 cells, 48 hrs post-infection, read-out: EC50-DN2 (A549)
[8] = refolded NS3, read-out: IC50-pro (DN2)
[9] = Zika virus, A549, read-out: EC50-ZK
[10] = Dengue virus, DENV2, Table 4, preliminary SAR, A549 cells, read-out: EC50-DN2
[11] = Table 4, preliminary SAR, A549 cells, read-out: EC50-ZK
[12] = Table 4, preliminary SAR, A549 cells, read-out: EC50-DN2
[13] = Table 4, preliminary SAR, read-out: IC50-pro(DN2)
[14] = female, B6, mouse, in vivo, po, 40 mg/kg

T1 sequence (P29990 1476-1654): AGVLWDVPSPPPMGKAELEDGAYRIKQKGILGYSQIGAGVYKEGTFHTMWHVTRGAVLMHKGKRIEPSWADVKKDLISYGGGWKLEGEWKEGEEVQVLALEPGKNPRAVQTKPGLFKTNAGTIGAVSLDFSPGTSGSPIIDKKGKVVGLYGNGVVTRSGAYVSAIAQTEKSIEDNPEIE
T2 sequence (P29990 1476-1654): as above

Compound: O=C(Nc1ccc([N+](=O)[O-])cc1Cl)c1cc(Cl)ccc1OCCN1CCOCC1 [HJC0114]
- EC50 (ZIKV; [5]): > 30 µM
- CC50 [1, 6]: > 200 µM
- EC50 (DENV2; [7]): > 30 µM
- IC50 [2]: 18.4 µM
- IC50 (DENV2 NS2B-NS3 protease; [8]): 33.6 µM

Compound: O=C(Nc1ccc([N+](=O)[O-])cc1Cl)c1cc(Cl)ccc1OC1CCNCC1 [HJC0125]
- EC50 (ZIKV; [5]): 0.15 µM
- CC50 [1, 6]: 50.2 µM
- EC50 (DENV2; [7]): 0.21 µM
- IC50 [2]: 16.3 µM
- IC50 (DENV2 NS2B-NS3 protease; [8]): 44.5 µM

Compound: Nc1ccc(NC(=O)c2cc(Cl)ccc2O)c(Cl)c1 [HJC0129]
- EC50 (ZIKV; [9]): > 30 µM
- EC50 (ZIKV; [5]): > 30 µM
- CC50 [1, 6]: 176 µM
- EC50 (DENV2; [7]): > 30 µM
- EC50 (DENV2; [10]): > 30 µM
- logP (LogP): 2.76
- IC50 [2]: 9.6 µM
- IC50 (DENV2 NS2B-NS3 protease; [8]): 11.3 µM

Compound: CC(=O)Nc1ccc(NC(=O)c2cc(Cl)ccc2O)c(Cl)c1 [HJC0140]
- EC50 (ZIKV; [9]): > 30 µM
- EC50 (ZIKV; [5]): > 30 µM
- EC50 (DENV2; [7]): > 30 µM
- EC50 (DENV2; [10]): > 30 µM
- logP (LogP): 2.47

Compound: O=C(Nc1ccc2c(c1)S(=O)(=O)C=C2)c1cc(Cl)ccc1O [HJC0149]
- EC50 (ZIKV; [9]): 1.1 µM
- EC50 (ZIKV; [5]): 1.1 µM
- CC50 [1, 6]: 241 µM
- EC50 (DENV2; [7]): 0.9 µM
- EC50 (DENV2; [10]): 0.9 µM
- logP (LogP): 2.41
- IC50 [2]: 18.6 µM
- IC50 (DENV2 NS2B-NS3 protease; [8]): 20.3 µM

Compound: NCCCOc1ccc(Cl)cc1C(=O)Nc1ccc([N+](=O)[O-])cc1Cl [HJC0308]
- EC50 (ZIKV; [5]): 6.2 µM
- CC50 [1, 6]: 17.7 µM
- EC50 (DENV2; [7]): 1.4 µM
- IC50 [2]: 4.9 µM
- IC50 (DENV2 NS2B-NS3 protease; [8]): 39.7 µM

Compound: CN1CCN(CCOc2ccc(Cl)cc2C(=O)Nc2ccc([N+](=O)[O-])cc2Cl)CC1 [HJC0365]
- EC50 (ZIKV; [5]): 6 µM
- CC50 [1, 6]: 177 µM
- EC50 (DENV2; [7]): 6.4 µM
- IC50 [2]: 13.2 µM
- IC50 (DENV2 NS2B-NS3 protease; [8]): > 60 µM

Compound: CN1CCC(Oc2ccc(Cl)cc2C(=O)Nc2ccc([N+](=O)[O-])cc2Cl)CC1 [HJC0381]
- aqueous solubility (Aqueous solubility): significantly improves the aqueous solubility
- EC50 (ZIKV; [9]): 3.9 µM
- EC50 (ZIKV; [5]): 3.9 µM
- CC50 [1, 6]: 91.1 µM
- EC50 (DENV2; [7]): 1.2 µM
- EC50 (DENV2; [10]): 1.2 µM
- logP (LogP): 2.38
- IC50 [2]: 10.8 µM
- IC50 (DENV2 NS2B-NS3 protease; [8]): 25.9 µM

Compound: CC[C@H](N)COc1ccc(Cl)cc1C(=O)Nc1ccc([N+](=O)[O-])cc1Cl [HJC0390]
- EC50 (ZIKV; [5]): < 0.1 µM
- CC50 [1, 6]: 30.1 µM
- EC50 (DENV2; [7]): 0.43 µM
- IC50 [2]: 6 µM
- IC50 (DENV2 NS2B-NS3 protease; [8]): 46.5 µM

Compound: NCCCCOc1ccc(Cl)cc1C(=O)Nc1ccc([N+](=O)[O-])cc1Cl [HJC0431]
- aqueous solubility (Aqueous solubility): significantly improves the aqueous solubility
- EC50 (ZIKV; [9]): 0.36 µM
- EC50 (ZIKV; [5]): 0.36 µM
- CC50 [1, 6]: 28.4 µM
- EC50 (DENV2; [7]): 2.2 µM
- EC50 (DENV2; [10]): 2.2 µM
- logP (LogP): 3.9
- IC50 [2]: 3.1 µM
- IC50 (DENV2 NS2B-NS3 protease; [8]): 34 µM

Compound: O=C(NC(Cc1ccccc1)C(=O)Nc1ccc([N+](=O)[O-])cc1Cl)c1cc(Cl)ccc1O (stereo not drawn) [JMX0285]
- EC50 (ZIKV; [11]): 0.3 µM
- CC50 (A549 cells): 16.5 µM
- Perme. (cell permeability) [3]: 0.25 ×10⁻⁶ cm/s
- EC50 (DENV2; [12]): 0.48 µM
- logP (LogP): 3.84
- IC50 (DENV2 NS2B-NS3 protease; [13]): 5.7 µM

Compound: O=C(Nc1ccc(C(F)(F)F)cc1Cl)c1cc(Cl)ccc1O [JMX0308]
- EC50 (ZIKV; [11]): 0.12 µM
- Perme. (cell permeability) [3]: 0.27 ×10⁻⁶ cm/s
- EC50 (DENV2; [12]): 0.09 µM
- logP (LogP): 4.49

Compound: O=C(Nc1cc(F)cc(C(F)(F)F)c1)c1cccc([N+](=O)[O-])c1O [JMX0317]
- EC50 (ZIKV; [11]): 0.12 µM
- CC50 (A549 cells): 20.4 µM
- Perme. (cell permeability) [3]: 2.9 ×10⁻⁶ cm/s
- EC50 (DENV2; [12]): 0.2 µM
- logP (LogP): 3.26
- IC50 (DENV2 NS2B-NS3 protease; [13]): 8.4 µM

Compound: CC(=O)Oc1ccccc1C(=O)Nc1ncc([N+](=O)[O-])s1 [NTZ, nitazoxanide, reference compound]
- EC50 (ZIKV; Zika virus, Table 4, preliminary SAR, A549 cells, read-out: EC50-ZK): 1.5 µM
- CC50 [1]: 77 µM
- EC50 (DENV2; [10]): 0.3 µM
- logP (physchem): 2.14

Compound: O=C(Nc1ccc([N+](=O)[O-])cc1Cl)c1cc(Cl)ccc1O [Niclosamide, reference compound]
- Papp (in vitro): 0.25 ×10⁻⁶ cm/s
- EC50 (ZIKV; [9]): 0.48 µM
- EC50 (ZIKV; [5]): 0.48 µM
- CC50 (A549 cells): 4.8 µM
- T1/2 ± S.D. ([4]; B6 mice, single oral dose 40 mg/kg, plasma): 4.6 ± 1.0 h
- AUC0→∞ ± S.D. [4, 14]: 3.5 ± 0.8
- Cmax [4, 14]: 600 nM
- Tmax ± S.D. [4, 14]: 0.7 ± 0.4 h
- EC50 (DENV2; Dengue virus, DENV2, A549, 48 h, read-out: EC50-DN2 (A549)): 0.55 µM
- logP (physchem): 3.38
- IC50 [2]: 2 µM
- EC50 (DENV2 replicon): 2 µM
